This note sets out measurements from US7482307B2, “Herbicide composition” (Sumitomo Chemical Company, Limited, priority 2001, dated 2009).

The subject of data set [1] is yellow nutsedge (Cyperus esculentus). As to the kind of experiment: Test Example 1: foliar spray herbicide effect on yellow nutsedge in greenhouse pots. The format is in vivo. Particulars: evaluated 25 days after treatment, level 0-10. As for the experimental part:
(§1) Evaluation of phytotoxicity against a crop was shown by “no” when almost no phytotoxicity was observed, “low” when a low level phytotoxicity was observed, “medium” when a medium level phytotoxicity was observed and “high” when a high level phytotoxicity was observed.
(§2) A plastic pot of 11 cm in diameter and 8 cm in depth was filled with field soil. A tuber of yellow nutsedge (Cyperus esculentus) was planted and grown in a greenhouse for 21 days.
(§3) An emulsion of Compound A-1 was prepared by sufficiently mixing 5 parts of Compound A-1, 6 parts of Sorpol 3005× (surfactant, produced by Toho Chemical) and 89 parts of xylene.
Each of • single use of an emulsion of Compound A-1, • single use of an formulation of Imazethapyr (commercial name: Pursuit, produced by American Cyanamid, containing 24% of imazethapyr), • single use of an formulation of Imazamox (commercial name: Raptur, produced by American Cyanamid, containing 12.1% of imazamox), • a mixed composition of an emulsion of Compound A-1 and an formulation of Imazethapyr, and • a mixed composition of an emulsion of Compound A-1 and an formulation of Imazamox, were diluted with water containing 1% Agri-dex (produced by Helena). Respective dilutions were uniformly sprayed from upper side onto foliages of yellow nutsedge grown as described above with a small sprayer such that the amounts of the active ingredients were the amounts shown in Table 4. Immediately after the treatment with the test compounds, seeds of soybean were sown.
(§4) After the treatment, they were raised in a greenhouse for 25 days and the effect against weeds was evaluated. In addition, after 14 days of the treatment, the phytotoxicity to soybean was evaluated.

The subject of data set [2] is soybean. As to the kind of experiment: Test Example 1: phytotoxicity to soybean sown immediately after treatment. Particulars: evaluated after 14 days. The format is in vivo. As for the experimental part: as §1, §2, §3
Each of • single use of an emulsion of Compound A-1, • single use of an formulation of Imazethapyr (commercial name: Pursuit, produced by American Cyanamid, containing 24% of imazethapyr), • single use of an formulation of Imazamox (commercial name: Raptur, produced by American Cyanamid, containing 12.1% of imazamox), • a mixed composition of an emulsion of Compound A-1 and an formulation of Imazethapyr, and • a mixed composition of an emulsion of Compound A-1 and an formulation of Imazamox, were diluted with water containing 1% Agri-dex (produced by Helena). […]
as §4

`COCc1cnc(C2=NC(C)(C(C)C)C(=O)N2)c(C(=O)O)c1` (stereo not drawn) [Imazamox, 2-(4-isopropyl-4-methyl-5-oxo-2-imidazolin-2-yl)-5-(methoxymethyl)nicotinic acid]: the “Herbicide Effect yellow nutsedge” value in data set [1] (10 g/ha active ingredient) is 1; in data set [1] (40 g/ha active ingredient) it was 2. In addition, the Phytotoxicity soybean entry in data set [2] (10 g/ha active ingredient) and in data set [2] (40 g/ha active ingredient) was “no” in each case.

As to `CCc1cnc(C2=NC(C)(C(C)C)C(=O)N2)c(C(=O)O)c1` (stereo not drawn) [Imazethapyr, 5-ethyl-2-(4-isopropyl-4-methyl-5-oxo-2-imidazolin-2-yl)nicotinic acid], the results for the “Herbicide Effect yellow nutsedge” value in data set [1] (20 g/ha active ingredient) and in data set [1] (80 g/ha active ingredient) were 1 and 2, respectively.
